{"source": "paper PMC6013238", "about": "“Development of novel NEMO-binding domain mimetics for inhibiting IKK/NF-κB activation” (PLoS Biology, 2018)", "system": "mdx mice", "assay": "Chronic treatment of mdx mice, qRT-PCR of eMyHC and Pax7 in TA muscle", "assay_type": "in vivo, mouse", "details": "Fig 7D, SR 30 mg/kg, 8K-NBD 10 mg/kg, 4 wk, single mice", "from_the_text": "Fig 7 NBD mimetics improve muscular pathology and grip strength in mdx mice. (A) Shown is the treatment regimen with NBD mimetics in mdx mice. (B) Hematoxylin–eosin staining of TA muscle from 7-wk-old, treated or untreated mdx mice. Images were taken at magnification of 20×. Representative images were shown for each treatment group. […] (E) TA muscle from 7-wk-old, treated or untreated mdx mice was stained with laminin by IHC to outline myofibers. Overall images of TA muscle were shown on the left side, and the inset panel images were shown on the right side. (F) Quantitation of minimum Feret diameter in centrally and noncentrally nucleated myofibers. (G) Forelimb force determined by grip strength test. […] Underlying data can be found in S1 Data. eMyHC, embryonic myosin heavy chain; IHC, immunohistochemistry; NBD, NEMO-binding domain; NEMO, NF-κB essential modulator; Pax7, paired box protein 7; qRT-PCR, quantitative real-time polymerase chain reaction; TA, tibialis anterior.\nTo determine whether SR12343 and SR12460 improve muscle pathology, TA muscle was stained with hematoxylin–eosin to assess inflammatory infiltration, necrosis, central nucleation, and fibrosis. […] To further quantitate the extent of inflammation in mdx muscle tissues, diaphragm and TA muscle were immunostained for cluster of differentiation 68 (CD68), a macrophage marker. […]", "note": "“And” between values parts separate entries of the source, which are not always exact repeats. Equal values may be shown once."}
{"smiles": "O=C(CNc1ccc(Cl)cn1)NCCc1cccc(Br)c1", "note": "[SR12343]", "values": [{"measurement": "Pax7 mRNA in TA muscle (qRT-PCR)", "value": "1.512 and 1.485 and 1.5466 and 1.253 and 1.1889 and 1.394"}]}
